These antisense oligonucleotides have a phosphorothioate backbone; sugars and methylation of C are not fully specified.
What was measured:
Settings in all cases: ASO
TNF = target: TNF
VCAM1 = target: VCAM1
ICAM1 = target: ICAM1
Further: test concentration or dose not given here.

Row | Sequence | remaining target (mRNA or protein) (fraction of control) (VCAM1) | remaining target (mRNA or protein) (fraction of control) (ICAM1) | further results
1 | AAACTTACCTACGACGTGGGC | – | – | remaining target (mRNA or protein) (fraction of control) (TNF): ≥ 1
2 | AAAGCTTTAAGTCCCCCGCCC | – | – | remaining target (mRNA or protein) (fraction of control) (TNF): 0.25
3 | AACATCTCCGTACCATGCCA | 0.25 | – | –
4 | AACCCAGTGCTCCCTTTGCT | 0.21 | – | –
5 | AACCCTTATTTGTGTCCCACC | 0.09 | – | –
6 | AACCTCGCGC | – | 0.96 | –
7 | AACTCCTCCAGTTCTCTCATC | 0.12 | – | –
8 | AATAATAAATAATAAATAAAT | – | – | remaining target (mRNA or protein) (fraction of control) (TNF): ≥ 1
9 | ACACATACACACACACACACA | – | 0.54 | –
10 | ACACTTACTGAGTGTGAGGGT | – | – | remaining target (mRNA or protein) (fraction of control) (TNF): ≥ 1
11 | ACCTGTGTGTGCCTGGGAGGG | 0.26 | – | –
12 | ACGACCATCTTCCC | 0.51 | – | –
13 | ACTTTCCCAGCAGGTATTTGG | – | – | remaining target (mRNA or protein) (fraction of control) (TNF): 0.88
14 | AGAGCCACAATTCCCTTTCTA | – | – | remaining target (mRNA or protein) (fraction of control) (TNF): 0.2
15 | AGCCACCTGGGGGCCAAGGGG | – | ≥ 1 | –
16 | AGCCATAGCGAGGC | – | 0.64 | –
17 | AGCCATAGCGAGGCTGAGGTT | – | 0.2 | –
18 | AGCGAGGCTG | – | 0.97 | –
19 | AGCGAGGCTGAG | – | 0.79 | –
20 | AGCTGCGCTGCTACCTGCAC | – | 0.25 | –
21 | AGGCTCCTGTTTCCGGGGAGA | – | – | remaining target (mRNA or protein) (fraction of control) (TNF): ≥ 1
22 | AGGGAAGGAAGGAAGGAAGGG | – | – | remaining target (mRNA or protein) (fraction of control) (TNF): ≥ 1
23 | AGTGAGTTCCGAAAGCCCATT | – | – | remaining target (mRNA or protein) (fraction of control) (TNF): 0.94

Row | Sequence | remaining target (mRNA or protein) (fraction of control) (VCAM1) | remaining target (mRNA or protein) (fraction of control) (ICAM1) | further results
24 | ATAGCGAGGC | – | ≥ 1 | –
25 | ATTTGGAATTCCCAGAGTGGG | – | – | remaining target (mRNA or protein) (fraction of control) (TNF): ≥ 1
26 | CAAGTGTGCATCCCCCAGGC | – | 0 | –
27 | CACATGTCTATGGAGGG | – | 0.89 | –
28 | CACGAGGCCACCACTCATCTC | 0.05 | – | –
29 | CAGATCAGGGAACTCCTC | 0.55 | – | –
30 | CAGCCTGCCTTACTGTGGGC | 0.67 | – | –
31 | CAGTCACGGCTCCCGTGGG | – | – | remaining target (mRNA or protein) (fraction of control) (TNF): 0.91
32 | CAGTCTGGGAAGCTCTGAGGG | – | – | remaining target (mRNA or protein) (fraction of control) (TNF): ≥ 1
33 | CATAGCGAGGCTGAGGTTGC | – | 0.39 | –
34 | CATCTCGATTTCTGG | 0.47 | – | –
35 | CATCTTCCCAGGCAT | 0.45 | – | –
36 | CATTTCTTTTCCAAGCGAAC | – | – | remaining target (mRNA or protein) (fraction of control) (TNF): 0.94
37 | CCACCACTCATCTCG | 0.26 | – | –
38 | CCAGAGGAAGTGGCTGAGGG | – | 0.35 | –
39 | CCATAGCGAGGC | – | ≥ 1 | –
40 | CCCAGGCATTTTAAG | 0.78 | – | –
41 | CCCAGGCATTTTAAGTTGCTG | 0.33 | – | –
42 | CCCATTCACGAGGCCACC | 0.11 | – | –
43 | CCCCCACCACTTCCCCTCTC | – | 0 | –
44 | CCCCCACCACTTCCCCTCTCA | – | 0.07 | –
45 | CCCCGACTCACCTGGGAACAG | – | 0.66 | –
46 | CCCGGAAACCTCGCGC | – | 0.88 | –

Row | Sequence | remaining target (mRNA or protein) (fraction of control) (VCAM1) | remaining target (mRNA or protein) (fraction of control) (ICAM1) | further results
47 | CCCGGCATCTTTACAAAACC | 0.45 | – | –
48 | CCCTTATTTGTGTCCC | 0.37 | – | –
49 | CCTCCAGTTCTCTC | 0.32 | – | –
50 | CCTGAAGCCAGTGAGG | 0.61 | – | –
51 | CCTGAAGCCAGTGAGGCCCG | 0.42 | – | –
52 | CCTGGGAGGGTATTC | 0.39 | – | –
53 | CCTGTCCCGGGATAGGTTCA | – | 0.4 | –
54 | CCTGTGTGTGCCTGGGAGGG | 0.88 | – | –
55 | CGACCATCTTCCCAGGCATTT | 0.2 | – | –
56 | CGAGGCCACCACTC | 0.16 | – | –
57 | CGATGCAGATACCGCGGAGT | 0.37 | – | –
58 | CGATGGGCAGTGGGAAAG | – | 0.95 | –
59 | CGGGGGCTGCTGGGAGC | – | 0.76 | –
60 | CGTGATGAAGAAAATAGTGGTT | 0.49 | – | –
61 | CTATGGAGGGCCACTTC | – | 0.39 | –
62 | CTCATCCAGCAGGCTCAGGG | – | 0.75 | –
63 | CTCTCATCTTGATGGC | 0.55 | – | –
64 | CTCTGAGTAGCAGAGG | – | 0.76 | –
65 | CTCTGAGTAGCAGAGGAGCTC | – | 0.17 | –
66 | CTGAGGTTGC | – | 0.95 | –
67 | CTGTGTGTCCTGTCTCCGCT | 0.27 | – | –
68 | CTTGAACAATTAATTCCACCT | 0.37 | – | –
69 | CTTTGACTTCTTGCTCACAGC | 0.07 | – | –

Source: the OligoGym collection
